# Measurements taken from patent US20190167811A1, “LIPID COMPOSITIONS AND THEIR USES FOR INTRATUMORAL POLYNUCLEOTIDE DELIVERY” (ModernaTX, Inc., priority 2016, published 2019).
# Test: Plasma and liver pharmacokinetics of LNP formulated mRNAs
# Format: in vivo
# Method: The plasma and liver pharmacokinetics of a lipid formulation (LNP) containing Compound 18 and an mRNA encoding a protein of interest was studied. The concentrations of Compound 18 in plasma after a single IV infusion are shown FIG. 28. The concentration of Compound 18 decreased quickly within about 12 hours.
# The concentrations of Compound 18 in liver tissues after weekly dosing were measured at day 1, day 8, and day 15.
smiles,measurement,setting,value
"CCCCCCCCCOC(=O)CCCCCCCN(CCO)CCCCCCCC(=O)OC(CCCCCCCC)CCCCCCCC [Compound 18, Heptadecan-9-yl 8-((2-hydroxyethyl)(8-(nonyloxy)-8-oxooctyl)amino) octanoate]",time within which the concentration of Compound 18 in plasma decreased quickly,single IV infusion of LNP containing Compound 18 and mRNA,≤ 12 h
same,concentration of Compound 18 in liver tissues,"weekly dosing, measured at day 1, day 8, day 15, at four hours after each weekly dosing",decreased significantly
